Measurements as given in US20190248739A1 (NEWLINK GENETICS CORPORATION, priority 2015, published 2019).
Structures can show the parent of a compound that is named as a salt. Where two headings read alike, the source gives them in different places. Blank lines part the entries; values can stand above or below the compound they belong to.

Tests used:
[1] = pharmacokinetic testing of indoximod prodrugs in liquid formulation in rats; assay type: in vivo; details: oral solution, 50 mg/kg
[2] = pharmacokinetic testing of indoximod prodrugs in liquid formulation in mice; details: for change in indoximod AUC versus indoximod / change in indoximod Cmax versus indoximod: mice, oral, 50 mg/kg; for AUC(0-inf) / Cmax / Tmax / half-life: mouse, plasma, po; for % Change in Norm. Cmax / % Increase in Norm AUC: vs indoximod, Mouse, PO solution, salt form FB
Description: Blood samples (0.1-0.2 mL) were collected from the femoral artery port from rats or by retro-orbital bleeding from mice and plasma was immediately collected by centrifugation and stored on dry ice to avoid prodrug hydrolysis after plasma collection. […] The pharmacokinetic parameters reflect the average of individual parameter values obtained from each individual rat (n) or one common parameter from a single pharmacokinetic curve derived from blood samples obtained from a group of mice (n).

[3] = hygroscopicity and stability of indoximod and its salts; assay type: physicochemical; details: for Hygroscopicity (0-80% RH): Table 2, in % (unit assumed)
[4] = solubility of indoximod and its salts in water, buffers and SGF; assay type: physicochemical; details: for pH of the SGF solution (in brackets) / Solubility (25° C., mg/mL) SGF / pH of the water solution (in brackets) / Solubility (25° C., mg/mL) Water: 25° C.; for pH of the SGF solution (in brackets): SGF solubility test; for pH of the water solution (in brackets): water solubility test
[5] = crossover pharmacokinetic study of indoximod free base, salts and SDD in cynomolgus monkeys; assay type: in vivo; details: for AUC(0-t): read-out: AUC(0 −> 48 h)
Description: The SDD suspension formulations were prepared in 0.5% methylcellulose (Methocel).

[6] = pharmacokinetic testing of indoximod salts in capsule formulation in rats; assay type: in vivo; details: capsules
Description: Three dose levels were investigated: 37, 185 or 500 μmol/kg.
Capsules were manually filled and the composition uniformity of a representative sample of capsules from each batch was verified by weight and by LC-MS/MS to determine the average indoximod content.
(§1) Rats were fasted 16 h prior to dosing to eliminate any confounding food effects, and food was returned 2 h after dosing.

[7] = human pharmacokinetics of oral indoximod; assay type: in vivo; details: plasma
[8] = indoximod plasma exposure in murine antitumor experiments; assay type: in vivo; details: mice; for exposure: ~500 mg/kg/day or oral 200 mg/kg bid
[9] = in-vitro dissolution test of SDD formulations in simulated gastric buffer (GB) and simulated intestinal fluid (SIF); assay type: physicochemical
Description: In this study, SDD formulations were made by two methods: hot process spray dry—formulation solution heated up to 110° C. before spraying dry, and basic spray dry—formulation pH raised up to ˜11.5 (room temperature) before spraying dry. The performance of each SDD formulation was investigated by in-vitro dissolution test in simulated gastric buffer (GB) and simulated intestinal fluid (SIF). […] In addition, higher drug load in the powder was preferred since it could decrease the dose amount of the final formulation. Based on all these criteria, two SDD formulations were selected for further in vivo PK studies in monkeys.

[10] = pharmacokinetic testing of indoximod prodrug salts in solid capsule formulation in rats; assay type: in vivo; details: for % Change Cmax / % Change in AUC: vs indoximod free base
Description: These blends were formulated so that each capsule contained the same molar dose of each prodrug. […] The composition and uniformity of a representative sample of capsules from each batch was verified by weight and by LC-MS/MS to determine the average indoximod or prodrug content.
as §1

[11] = system: ectopic melanoma, colon and lung tumors, breast tumor models; details: cited from earlier work
[12] = pharmacokinetic testing of indoximod prodrug salts in solid capsule formulation in cynomolgous monkeys
[13] = both dose levels (275 and 825 μmol/kg)
[14] = 37 μmol/kg, listed as Indoximod hydrochloride salt
[15] = 185 μmol/kg, listed as Indoximod hydrochloride salt
[16] = 500 μmol/kg, listed as Indoximod hydrochloride salt
[17] = Table 10.1, rats, oral capsules, dose 37 μmol/kg, salt form free base
[18] = Table 10.1, rats, oral capsules, dose 185 μmol/kg, salt form free base
[19] = Table 10.1, rats, oral capsules, dose 500 μmol/kg, salt form free base
[20] = Table 10.2, indoximod, rats, oral capsules, dose 37 μmol/kg, salt form free base
[21] = Table 10.2, indoximod, rats, oral capsules, dose 185 μmol/kg, salt form free base
[22] = Table 10.2, indoximod, rats, oral capsules, dose 500 μmol/kg, salt form free base
[23] = Table 10.2, rats, oral capsules, dose 37 μmol/kg, salt form free base
[24] = Table 10.2, rats, oral capsules, dose 185 μmol/kg, salt form free base
[25] = Table 10.2, rats, oral capsules, dose 500 μmol/kg, salt form free base
[26] = indoximod, cynomolgous monkeys, oral capsules, dose 275 μmol/kg, salt form free base

- change in indoximod AUC versus indoximod [1]: increase
- change in indoximod Cmax versus indoximod [1]: increase
- change in indoximod AUC versus indoximod [2]: decrease
- change in indoximod Cmax versus indoximod [2]: decrease
Structure (SMILES): CCOC(=O)[C@H](N)Cc1cn(C)c2ccccc12 [NLG-1283, ethyl 1-methyl-D-tryptophanate hydrochloride]

- change in indoximod AUC versus indoximod [1]: does not produce a significant increase
- change in indoximod Cmax versus indoximod [1]: does not produce a significant increase
- change in indoximod AUC versus indoximod [2]: significant increase
- change in indoximod Cmax versus indoximod [2]: significant increase
Structure (SMILES): CC(C)OC(=O)[C@H](N)Cc1cn(C)c2ccccc12 [NLG-1284, isopropyl 1-methyl-D-tryptophanate hydrochloride]

- Hygroscopicity (0-80% RH) ([3]; listed as HCl Salt): 0.017
- pH of the SGF solution (in brackets) ([4]; listed as HCl Salt): 1.03
- Solubility (25° C., mg/mL) SGF ([4]; listed as HCl Salt): > 200 mg/mL
- Solubility (25° C., mg/mL) SGF ([4]; listed as hydrochloride salt): > 200 mg/mL
- pH of the water solution (in brackets) ([4]; listed as HCl Salt): 1.06
- Solubility (25° C., mg/mL) Water ([4]; listed as HCl Salt): > 200 mg/mL
- Solubility (25° C., mg/mL) Water ([4]; listed as hydrochloride salt): > 200 mg/mL
- increase in Cmax compared to indoximod free base capsules [5, 13]: 31-65%
- increase in exposure compared to indoximod free base capsules [5, 13]: 37-53%
- % Increase over indoximod FB (AUC) ([5]; oral, 275 μmol/kg): 53%
- % Increase over indoximod FB (Cmax) ([5]; oral, 275 μmol/kg): 65%
- AUC(0 −> 48 h) ([5]; oral, 275 μmol/kg): 101 ± 18 µM·h
- Cmax ([5]; oral, 275 μmol/kg): 21.3 ± 8.9 µM
- % Increase over indoximod FB (AUC) ([5]; oral, 825 μmol/kg): 37%
- % Increase over indoximod FB (Cmax) ([5]; oral, 825 μmol/kg): 31%
- AUC(0 −> 48 h) ([5]; oral, 825 μmol/kg): 173 ± 75 µM·h
- Cmax ([5]; oral, 825 μmol/kg): 33.4 ± 12 µM
- % Increase over indoximod Free Base (AUC) ([6]; 37 μmol/kg): −23%
- % Increase over indoximod Free Base (Cmax) ([6]; 37 μmol/kg): −40%
- AUC(0 −> ∞) ([6]; 37 μmol/kg): 299 ± 77 µM·h
- Cmax ([6]; 37 μmol/kg): 9.5 ± 2 µM
- % Increase over indoximod Free Base (AUC) [6, 14]: did not show a significant change
- % Increase over indoximod Free Base (Cmax) [6, 14]: non-statistically significant decrease
- % Increase over indoximod Free Base (AUC) ([6]; 185 μmol/kg): 38%
- % Increase over indoximod Free Base (Cmax) ([6]; 185 μmol/kg): 84%
- AUC(0 −> ∞) ([6]; 185 μmol/kg): 1493 ± 728 µM·h
- Cmax ([6]; 185 μmol/kg): 38.4 ± 10 µM
- % Increase over indoximod Free Base (AUC) [6, 15]: significant increase
- % Increase over indoximod Free Base (Cmax) [6, 15]: statistically significant increase
- % Increase over indoximod Free Base (AUC) ([6]; 500 μmol/kg): −6%
- % Increase over indoximod Free Base (Cmax) ([6]; 500 μmol/kg): −42%
- AUC(0 −> ∞) ([6]; 500 μmol/kg): 2706 ± 847 µM·h
- Cmax ([6]; 500 μmol/kg): 44.4 ± 8 µM
- % Increase over indoximod Free Base (AUC) [6, 16]: did not show a significant change
- % Increase over indoximod Free Base (Cmax) [6, 16]: statistically significant decrease
Structure (SMILES): Cn1cc(C[C@@H](N)C(=O)O)c2ccccc21 [indoximod HCl, (R)-1-carboxy-2-(1-methyl-1H-indol-3-yl)ethan-1-aminium chloride]

- Tmax [7]: ~3 h
- half-life [7]: ~10 h
- AUC(0-t) ([7]; patients, up to 800 mg/dose, read-out: drug exposure (AUC(0-last))): ~100 µM·h
- Cmax ([7]; po, 800 mg/dose, patients, about 800 mg/dose, read-out: maximum plasma concentration (Cmax)): 15 µM
- AUC(0-inf) ([7]; ~800 mg/dose): 100 µM·h
- exposure [8]: greater than 300 μM.h
- exposure ([8]; listed as Indoximod): > 300 µM·h
- Cmax ([8]; mouse, plasma, drinking water 3 mg/mL (~500 mg/kg/day) or oral 200 mg/kg bid): > 20 µM
- hygroscopicity (weight gain) ([3]; 0-80%RH): 0.09%
- stability in solution ([3]; 0.1 N HCl and 50 mM phosphate buffers pH 2-8, 25° C., 24 hours): stable
- chemical stability of the solid powder form ([3]; 25° C/60%RH, 40° C., 40° C/75%RH, 60° C. and 70° C. for 4 weeks): chemically stable
- Hygroscopicity (0-80% RH) ([3]; listed as Free base): 0.09
- pH of the SGF solution (in brackets) ([4]; listed as Free base): 2.32
- Solubility (25° C., mg/mL) SGF ([4]; listed as Free base): 3.6 mg/mL
- pH of the water solution (in brackets) ([4]; listed as Free base): 6.03
- Solubility (25° C., mg/mL) Water ([4]; listed as Free base): 1.8 mg/mL
- solubility ([4]; aqueous solutions, buffered or un-buffered, pH 2, aqueous buffer, pH 2-8): 1.8 to 2 mg/mL
- UltraC90 ([9]; SIF, 90 min, after ultracentrifugation): 1,849 μg/mL
- UltraC1200 ([9]; SIF, 1200 min, after ultracentrifugation): 1,854 μg/mL
- CmaxGB ([9]; maximum indoximod concentration, dissolved in GB for 30 min): 5,154 μg/mL
- Cmax90 ([9]; maximum indoximod concentration, dissolved in SIF for 90 min): 2,213 μg/mL
- Cmax ([5]; male, cynomolgus monkey, plasma, po, 275 umol/kg): 12.9 ± 3.3 µM
- AUC(0-t) ([5]; male, cynomolgus monkey, plasma, po, 275 umol/kg, oral, 275 μmol/kg): 66 ± 17 µM·h
- Cmax ([5]; male, cynomolgus monkey, plasma, po, 825 umol/kg): 25.6 ± 12.8 µM
- AUC(0-t) ([5]; male, cynomolgus monkey, plasma, po, 825 umol/kg, oral, 825 μmol/kg): 127 ± 73 µM·h
- AUC(0-inf) ([6]; rat, plasma, po, 37 umol/kg): 390 ± 166 µM·h
- AUC(0-inf) ([6]; rat, plasma, po, 185 umol/kg): 1080 ± 478 µM·h
- Cmax ([6]; rat, plasma, po, 185 umol/kg): 20.8 ± 4 µM
- AUC(0-inf) ([6]; rat, plasma, po, 500 umol/kg): 2870 ± 1380 µM·h
- % Change Cmax [10, 17]: 0%
- % Change in AUC [10, 17]: 0%
- % Change Cmax [10, 18]: 0%
- % Change in AUC [10, 18]: 0%
- % Change Cmax [10, 19]: 0%
- % Change in AUC [10, 19]: 0%
- AUC(0->∞) [10, 20]: 390 ± 166 µM·h
- Cmax [10, 20]: 15.9 ± 8 µM
- AUC(0->∞) [10, 21]: 1080 ± 478 µM·h
- Cmax [10, 21]: 20.8 ± 4 µM
- AUC(0->∞) [10, 22]: 2871 ± 1379 µM·h
- Cmax [10, 22]: 76.2 ± 25 µM
- % Change Cmax [10, 23]: 0%
- % Change in AUC [10, 23]: 0%
- % Change Cmax [10, 24]: 0%
- % Change in AUC [10, 24]: 0%
- % Change Cmax [10, 25]: 0%
- % Change in AUC [10, 25]: 0%
- Cmax ([10]; Table 10.3, indoximod, rats, oral capsules, dose 37 μmol/kg, salt form free base): 15.9 ± 8 µM
- Cmax ([10]; Table 10.3, indoximod, rats, oral capsules, dose 185 μmol/kg, salt form free base): 20.8 ± 4 µM
- Cmax ([10]; Table 10.3, indoximod, rats, oral capsules, dose 500 μmol/kg, salt form free base): 76.2 ± 25 µM
- AUC(0-inf) ([10]; rat, plasma, po, 37 umol/kg): 390 ± 166 µM·h
- Cmax ([10]; rat, plasma, po, 37 umol/kg): 15.9 ± 8 µM
- AUC(0-inf) ([10]; rat, plasma, po, 185 umol/kg): 1080 ± 478 µM·h
- Cmax ([10]; rat, plasma, po, 185 umol/kg): 20.8 ± 4 µM
- AUC(0-inf) ([10]; rat, plasma, po, 500 umol/kg): 2870 ± 1380 µM·h
- Cmax ([10]; rat, plasma, po, 500 umol/kg): 76.2 ± 25 µM
- AUC(0-inf) ([2]; 10 mg/kg): 34 µM·h
- Cmax ([2]; 10 mg/kg): 9 µM
- Tmax ([2]; 10 mg/kg): 0.5 h
- half-life ([2]; 10 mg/kg): 1.8 h
- AUC(0-inf) ([2]; 100 mg/kg): 325 µM·h
- Cmax ([2]; 100 mg/kg): 43 µM
- Tmax ([2]; 100 mg/kg): 1 h
- half-life ([2]; 100 mg/kg): 3.5 h
- % Change in Norm. Cmax ([2]; dose 10 mg/kg): 0%
- % Increase in Norm AUC ([2]; dose 10 mg/kg): 0%
- % Change in Norm. Cmax ([2]; dose 100 mg/kg): 0%
- % Increase in Norm AUC ([2]; dose 100 mg/kg): 0%
- AUC(0->∞) ([12]; indoximod, cynomolgous monkeys, oral capsules, dose 92 μmol/kg, salt form free base): 38.5 ± 4 µM·h
- AUC(0->∞) [12, 26]: 74.9 ± 5 µM·h
- Cmax [12, 26]: 17.5 ± 3 µM
- Cmax ([12]; monkey, blood, po, 92 umol/kg): 8.2 ± 0.4 µM
- AUC(0-inf) ([12]; monkey, blood, po, 875 umol/kg): 165 ± 52 µM·h
- Cmax ([12]; monkey, blood, po, 875 umol/kg): 27.8 ± 8 µM
Structure (SMILES): Cn1cc(C[C@@H](N)C(=O)O)c2ccccc21 [indoximod, 1-methyl-D-tryptophan, reference compound]
- antitumor effect ([11]; in combination with chemotherapy): demonstrates antitumor effects
- antitumor effect ([11]; melanoma models, combination with anti-CTLA4 (ipilimumab)): synergistic antitumor effect
